Experimental data taken from patent US20160045459A1, “Pharmaceutical Combination” (Gruenenthal GmbH, priority 2006, published 2016).
Like-named read-outs stand apart in the source and are kept apart here.

Tested on: rat
Experiment: Randall-Selitto test in rats (Carrageenin-induced oedema, model for inflammatory pain), with isobolographic analysis of fixed ratio combinations
Type: in vivo
Settings: for ED50: Rattus norvegicus, confidence interval in brackets; for timepoint of peak effect: substance applied alone, A i.v., NSAIDs i.p.
Description: The weight ratios of the components (a) and (b) that will lead to a supra-additive effect (synergistic effect) of the inventive pharmaceutical composition may be determined via the test of Randall and Selitto as described in Arch. Int. Pharmacodyn., 1957, 111: 409 to 419, which is a model for inflammatory pain. The respective part of the literature is hereby incorporated by reference and forms part of the present disclosure.
By means of injection of 0.1 ml of Carrageenin-suspension ventrally into a hind paw of a rat an oedema is induced, on which pain is generated 4 hours later by continuously increasing pressure with a stamp (2 mm tip diameter). The antinociceptive and antihyperalgesic activity of the tested substance is determined at different points in time after administration of the substance. The measured value to be determined and at the same time also the end point of the pain test is the pressure at which the vocalisation reaction of the rat occurs. The percentage maximum possible effect (% MPE) is calculated. The maximum pressure of the stamp is 250 g. The group size is n=10.
The interactions studies presented herein were performed using equieffective doses of the two components, calculated from the ratio of the respective ED50 values of the components if administered alone.
The application route was intravenous (i.v.) for (1R,2R)-3-(3-Dimethylamino-1-ethyl-2-methyl-propyl)-phenol (A) and intraperitoneal (i.p.) for the NSAIDs Diclofenac-sodium and Ibuprofen. […] According to their respective timepoint of peak effect, (1R,2R)-3-(3-Dimethylamino-1-ethyl-2-methyl-propyl)-phenol was applied 15 min and Diclofenac-Sodium and Ibuprofen 30 min before timepoint of measurement of the interaction-experiments (i. e. Diclofenac-Sodium or Ibuprofen were applied 15 min before (1R,2R)-3-(3-Dimethylamino-1-ethyl-2-methyl-propyl)-phenol, respectively). Thus, the time point of ED50 calculation of the combination corresponds to the timepoint of the peak effect of the respective compound.
The application route was intravenous (i.v.) for (1R,2R)-3-(3-Dimethylamino-1-ethyl-2-methyl-propyl)-phenol (A) and intraperitoneal (i.p.) for the NSAIDs (+)-Naproxen, Ketoprofen and Metamizol-Sodium. […] According to their respective timepoint of peak effect, (1R,2R)-3-(3-Dimethylamino-1-ethyl-2-methyl-propyl)-phenol was applied 15 min and (+)-Naproxen, Ketoprofen and Metamizol-Sodium 45 min before timepoint of measurement of the interaction-experiments (i. e. (+)-Naproxen, Ketoprofen and Metamizol-Sodium were applied 30 min before (1R,2R)-3-(3-Dimethylamino-1-ethyl-2-methyl-propyl)-phenol, respectively). Thus, the time point of ED50 calculation of the combination corresponds to the timepoint of the peak effect of the respective compound.

[1] = ip, 0.5 h, study A, i.p., 30 min p. appl. (peak effect), read-out: ED50 of the NSAID applied alone
[2] = ip, 0.75 h, study B, i.p., 45 min p. appl. (peak effect), read-out: ED50 of the NSAID applied alone

| Compound | ED50 (iv, 0.25 h, read-out: ED50 of A applied alone, study A, i.v., 15 min p. appl. (peak effect)) [mg/kg] | ED50 (iv, 0.25 h, read-out: ED50 of A applied alone, study B, i.v., 15 min p. appl. (peak effect)) [mg/kg] | ED50 [1] [mg/kg] | analgesic effect of the NSAID applied alone (i.p.) | timepoint of peak effect [min p. appl.] | ED50 [2] [mg/kg] |
| --- | --- | --- | --- | --- | --- | --- |
| CC[C@@H](c1cccc(O)c1)[C@@H](C)CN(C)C [A, (1R,2R)-3-(3-Dimethylamino-1-ethyl-2-methyl-propyl)-phenol] | 1.88 | 1.88 |  |  |  |  |
| O=C(O)Cc1ccccc1Nc1c(Cl)cccc1Cl [Diclofenac-Sodium] |  |  | 145 | dose-dependent analgesic effects | 30 |  |
| CC(C)Cc1ccc(C(C)C(=O)O)cc1 (centres unmarked) [Ibuprofen, 2-(4-Isobutylphenyl)propanoic acid] |  |  | 139 | dose-dependent analgesic effects | 30 |  |
| CC(C(=O)O)c1cccc(C(=O)c2ccccc2)c1 (centres unmarked) [Ketoprofen, 2-(3-Benzoylphenyl)propanoic acid] |  |  |  | dose-dependent analgesic effects | 45 | 224 |
| CC1C(N(C)CS(=O)(=O)[O-])C(=O)N(c2ccccc2)N1C.[Na+] (centres unmarked) [Metamizol-Sodium, Sodium ((1,5-dimethyl-3-oxo-2-phenylpyrazolidin-4-yl)(methyl)amino)methanesulfonate] |  |  |  | dose-dependent analgesic effects | 45 | 88.1 |
